Assay results taken from ChEMBL document CHEMBL1201862, “PubChem BioAssay data set” (2004).
Blank lines part the entries; values can stand above or below the compound they belong to. Activity calls are given as the source filed them.

Experiments:
[1] = reduction of Shn3 3'UTR-driven luciferase in osteoblasts – cell-based, Clone20 osteoblasts, firefly luciferase, cherry-picked, dose response (AID 624132); format: functional;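 further: firefly luciferase luminescence from reporter carrying the Shn3 3'UTR in osteoblasts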
[2] = non-specific 3'UTR reporter inhibition in Clone20-Shn3RL – cell-based, Renilla luciferase, cherry-picked, counter-screen for Shn3 inhibitor project, dose response (AID 624133); format: functional
[3] = EF1alpha-driven Renilla reporter with control 3'UTR suppression – Clone20-Shn3RL cells, dual-Glo, cherry-pick, set 2, counter-screen for Shn3 3'UTR targeting project, dose response (AID 720724); format: functional, cell-based; conditions: Dual-Go Shn3RL
[4] = Shn3 3'UTR reporter signal decrease – cell-based, Clone20 osteoblasts, firefly luciferase, cherry-pick, set 2, Schnurri-3 inhibitor project, dose response (AID 720490); format: functional;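 further: actives lower the luminescence signal as inhibitors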
[5] = biological target: NAD-dependent protein deacylase sirtuin-5, mitochondrial (Homo sapiens, UniProt Q9NXA8); assay: sirtuin-5 deacylation blockers, concentration series – biochemical, fluorescence imaging, cherry-pick, set 5, dose response (AID 720591);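 further: desuccinylation of succinyl peptide AMC substrate read as fluorescence after trypsin release; potency of inhibitors that lower fluorescence and may act on trypsin instead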
cells [6] = assay: cells
cells [7] = assay: cells; remark: listed apart in the source
[8] = biological target: T1, Oxysterols receptor LXR-beta (Homo sapiens, UniProt P55055); format: functional, cell-based;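 further: Cell-based luminescence dose-response assay of agonist activity at LXR, run as a confirmatory counterscreen to a daf-12 agonist screen; HEK293 cells with Gal4-LXR fusion and GAL4-driven luciferase reporter; agonist potency from rising luciferase signal of a Gal4-LXR reporter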
T1 sequence (P55055 whole entry): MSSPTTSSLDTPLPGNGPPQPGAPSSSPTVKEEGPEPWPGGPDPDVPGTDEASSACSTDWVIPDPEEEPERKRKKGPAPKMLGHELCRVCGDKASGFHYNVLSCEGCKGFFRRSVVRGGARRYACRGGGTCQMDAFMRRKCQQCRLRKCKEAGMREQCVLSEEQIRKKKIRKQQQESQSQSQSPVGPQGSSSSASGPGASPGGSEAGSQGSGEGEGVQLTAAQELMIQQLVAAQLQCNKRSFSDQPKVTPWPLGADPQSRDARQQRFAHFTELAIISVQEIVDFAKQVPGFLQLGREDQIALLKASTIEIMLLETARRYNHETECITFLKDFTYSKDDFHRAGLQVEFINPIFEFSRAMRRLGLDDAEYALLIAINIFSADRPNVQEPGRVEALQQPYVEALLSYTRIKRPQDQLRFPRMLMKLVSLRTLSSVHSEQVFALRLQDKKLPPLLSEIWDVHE

[9] = biological target: T2, Methionyl-tRNA synthetase, putative (Trypanosoma brucei brucei, UniProt Q38C91); format: functional, Trypanosoma brucei brucei strain 927/4 GUTat10.1
T2 sequence (Q38C91 whole entry): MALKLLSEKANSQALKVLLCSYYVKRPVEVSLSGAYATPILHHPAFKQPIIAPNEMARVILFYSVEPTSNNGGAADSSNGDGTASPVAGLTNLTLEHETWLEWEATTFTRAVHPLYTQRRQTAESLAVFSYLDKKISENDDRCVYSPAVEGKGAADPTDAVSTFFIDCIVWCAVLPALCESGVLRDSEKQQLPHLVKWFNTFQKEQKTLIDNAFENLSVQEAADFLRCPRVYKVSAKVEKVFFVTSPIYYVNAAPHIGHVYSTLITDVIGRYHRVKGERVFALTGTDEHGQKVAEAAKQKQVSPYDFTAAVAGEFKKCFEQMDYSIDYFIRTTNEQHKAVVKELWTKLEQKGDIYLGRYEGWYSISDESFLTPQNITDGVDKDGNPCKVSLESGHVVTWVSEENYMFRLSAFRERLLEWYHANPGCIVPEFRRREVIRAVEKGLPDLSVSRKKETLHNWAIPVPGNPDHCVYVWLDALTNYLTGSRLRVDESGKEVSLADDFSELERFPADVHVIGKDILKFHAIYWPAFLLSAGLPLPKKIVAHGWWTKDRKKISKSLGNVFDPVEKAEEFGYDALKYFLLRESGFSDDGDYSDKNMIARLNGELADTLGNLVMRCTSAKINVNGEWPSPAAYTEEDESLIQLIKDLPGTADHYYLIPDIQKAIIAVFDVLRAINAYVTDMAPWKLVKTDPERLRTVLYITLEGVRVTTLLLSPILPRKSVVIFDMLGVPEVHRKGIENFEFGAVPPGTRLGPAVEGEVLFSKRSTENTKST

[10] = Counterscreen for inhibitors of Trypanosoma brucei methionyl tRNA synthetase (MetRS): Luminescence-based cell-based high throughput dose response assay to identify compounds that are cytotoxic to Jurkat human T lymphocyte cells.; format: functional
[11] = Late stage counterscreen for inhibitors of Trypanosoma brucei methionyl tRNA synthetase (MetRS): Luminescence-based cell-based high throughput dose response assay to identify compounds that are cytotoxic to Jurkat human T lymphocyte cells.; format: functional
[12] = biological target: T2, Methionyl-tRNA synthetase, putative; format: functional, Trypanosoma brucei brucei strain 927/4 GUTat10.1; remark: listed apart in the source
[13] = biological target: Potassium channel subfamily K member 3 (Homo sapiens, UniProt O14649); assay: inhibition of human KCNK3 channel flux – CHO cells, FluxOR thallium flux, SAR follow-up (AID 652212); format: functional
[14] = biological target: E3 ubiquitin-protein ligase UHRF1 (Homo sapiens, UniProt Q96T88); assay: Counterscreen for inhibitors of 5-meCpG-binding domain protein 2 (MBD2): TRFRET-based biochemical high throughput dose response assay to identify inhibitors of binding of ubiquitin-like with PHD and ring finger domains 1 (UHRF1) to methylated oligonucleotide.
Sequence of E3 ubiquitin-protein ligase UHRF1 (Q96T88 whole entry, the tested form may be a part): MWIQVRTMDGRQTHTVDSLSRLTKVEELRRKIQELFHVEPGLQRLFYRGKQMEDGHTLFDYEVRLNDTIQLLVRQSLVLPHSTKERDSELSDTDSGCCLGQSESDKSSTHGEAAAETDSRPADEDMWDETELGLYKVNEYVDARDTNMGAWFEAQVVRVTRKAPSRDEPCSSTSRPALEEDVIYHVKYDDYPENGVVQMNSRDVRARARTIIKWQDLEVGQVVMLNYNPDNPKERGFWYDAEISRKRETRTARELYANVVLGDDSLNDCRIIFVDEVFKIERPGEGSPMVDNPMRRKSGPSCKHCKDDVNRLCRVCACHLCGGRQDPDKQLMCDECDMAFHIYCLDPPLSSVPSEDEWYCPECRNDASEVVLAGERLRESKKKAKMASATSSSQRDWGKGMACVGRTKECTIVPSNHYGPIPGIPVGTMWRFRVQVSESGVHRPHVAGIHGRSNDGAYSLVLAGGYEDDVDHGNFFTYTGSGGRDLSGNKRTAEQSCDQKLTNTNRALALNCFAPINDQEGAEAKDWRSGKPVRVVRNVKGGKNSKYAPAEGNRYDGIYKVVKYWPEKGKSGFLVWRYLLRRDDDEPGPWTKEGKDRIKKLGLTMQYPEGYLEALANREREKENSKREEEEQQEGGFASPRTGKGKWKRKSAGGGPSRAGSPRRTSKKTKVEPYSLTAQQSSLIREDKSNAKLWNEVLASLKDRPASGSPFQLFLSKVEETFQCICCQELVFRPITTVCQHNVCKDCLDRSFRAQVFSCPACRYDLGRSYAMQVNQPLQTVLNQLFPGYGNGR

Sequence of Potassium channel subfamily K member 3 (O14649 whole entry, the tested form may be a part): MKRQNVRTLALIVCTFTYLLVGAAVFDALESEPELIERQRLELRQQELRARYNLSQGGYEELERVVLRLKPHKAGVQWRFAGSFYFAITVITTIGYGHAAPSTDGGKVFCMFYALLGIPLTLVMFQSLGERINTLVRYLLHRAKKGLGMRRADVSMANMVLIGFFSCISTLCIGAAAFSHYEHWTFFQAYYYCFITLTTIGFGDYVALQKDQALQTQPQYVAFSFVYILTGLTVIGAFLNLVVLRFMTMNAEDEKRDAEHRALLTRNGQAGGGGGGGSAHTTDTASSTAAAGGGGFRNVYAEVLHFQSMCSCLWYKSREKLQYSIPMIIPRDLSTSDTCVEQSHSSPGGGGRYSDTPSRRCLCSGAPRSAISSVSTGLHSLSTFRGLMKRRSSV
Sequence of NAD-dependent protein deacylase sirtuin-5, mitochondrial (Q9NXA8 whole entry): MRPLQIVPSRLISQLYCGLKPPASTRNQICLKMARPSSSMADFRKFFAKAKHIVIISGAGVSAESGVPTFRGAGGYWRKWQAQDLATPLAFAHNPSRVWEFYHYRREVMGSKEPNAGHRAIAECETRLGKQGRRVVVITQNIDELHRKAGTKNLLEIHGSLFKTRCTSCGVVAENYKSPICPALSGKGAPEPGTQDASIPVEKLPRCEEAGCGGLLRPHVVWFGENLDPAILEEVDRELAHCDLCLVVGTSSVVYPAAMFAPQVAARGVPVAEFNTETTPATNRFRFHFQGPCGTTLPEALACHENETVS

Compound: CN(c1ccccc1)S(=O)(=O)c1cccc(NC(=O)CSc2nncs2)c1
AC50 [1]: 1.44 µM (active) | AC50 [2]: 15.8 µM (active) | AC50 [3]: 4.3 µM (active) | AC50 [4]: 2.6 µM (active)

AC50 [5]: > 30 µM (inactive)
Compound: CCOC(=O)C1=C[C@@H](c2ccccc2)N(S(=O)(=O)c2ccc(C)cc2)[C@H]1c1ccccc1Cl

Compound: C#CCOc1ccc(C2C(C#N)=C(N)Oc3cc(O)ccc32)cc1 (centres undefined)
AC50 (cells [6]): 3.61 µM (active)

Compound: CSc1ccccc1-c1nnc(-c2ccccc2)o1
EC50 (cells [7]): > 67.5 µM (inactive) | EC50 [8]: > 67.5 µM (inactive)

Compound: O=C(NCc1nc2ccccc2[nH]1)C1=C[C@@H](c2csc3ccccc23)C[C@@H](OCCCCO)O1
IC50 [9]: 1.91 µM (active) | IC50 [10]: 80.2 µM (inactive) | IC50 [11]: 64.4 µM (inactive) | IC50 [12]: 1.36 µM (active)

IC50 [13]: 1.14 µM (active)
Compound: Cc1cccc(C(=O)Nc2cccc(C(=O)Nc3ccccc3)c2)c1

IC50 [14]: > 43.7 µM (inactive)
Compound: CCCCn1nnnc1C1(C)CCC(=O)N1CCCn1ccnc1 (centres undefined)
